Biological target: T1, Sirt6 (Homo sapiens, UniProt Q8N6T7)
T1 construct: purchased CycLex CY-1156V2
Assay: Measurement of Sirt6 Activity (CycLex Sirt6 Deacetylase Fluorometric Assay Kit)
Assay type: biochemical
Conditions: compound at 10 μM, fluorescence relative to the group without compound treatment (positive control group)
Outline: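 Recombinant Sirt6 with fluoro-labelled acetyl-lysine peptide, NAD and lysylendopeptidase developer, compound added from 10× stock in PBS; 1 h at room temperature. Fluorescence read at ex 490/em 530 nm; activation expressed as fluorescence ratio relative to enzyme without compound.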

T1 sequence (Q8N6T7 whole entry): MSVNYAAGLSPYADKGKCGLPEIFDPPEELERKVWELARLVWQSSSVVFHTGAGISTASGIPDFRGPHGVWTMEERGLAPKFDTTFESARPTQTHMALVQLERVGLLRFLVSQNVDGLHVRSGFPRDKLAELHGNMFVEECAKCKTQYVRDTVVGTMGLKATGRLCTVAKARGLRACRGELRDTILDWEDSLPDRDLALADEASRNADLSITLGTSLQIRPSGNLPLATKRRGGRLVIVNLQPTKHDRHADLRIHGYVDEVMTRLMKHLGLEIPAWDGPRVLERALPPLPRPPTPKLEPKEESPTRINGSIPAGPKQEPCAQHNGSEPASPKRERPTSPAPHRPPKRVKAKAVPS

| SMILES | Sirt6 Activity (% activity, 10 μM) [% activity] | Sirt6 Activity (% activity, 10 μM) (10 µM) [% activity] |
| --- | --- | --- |
| CC(C)/[N+]([O-])=C/c1ccccc1-c1nn(-c2ccc(F)cc2)c(=O)c2ccccc12 [Example 41, (Z)-1-(2-(3-(4-Fluorophenyl)-4-oxo-3,4-dihydrophthalazin-1-yl)phenyl)-N-isopropyl Methanimine Oxide] | 129 |  |
| CCS(=O)(=O)Nc1cccc(-c2nn(C3CCC(C)CC3)c(=O)c3ccccc23)c1 (stereo not shown) [Example 145, N-(3-(3-(4-Methylcyclohexyl)-4-oxo-3,4-dihydrophthalazin-1-yl)phenyl)ethanesulfonamide] | 136.6 |  |
| CCS(=O)(=O)Nc1cccc(-c2nn(-c3ccc(F)cc3)c(=O)c3cccc(C)c23)c1 [Example 150, N-(3-(3-(4-Fluorophenyl)-8-methyl-4-oxo-3,4-dihydrophthalazin-1-yl)phenyl)ethanesulfonamide] | 104.7 |  |
| CS(=O)(=O)c1cccc(-c2nn(-c3ccc(F)cc3F)c(=O)c3ccccc23)c1 [Example 89, 2-(2,4-Difluorophenyl)-4-(3-(methylsulfonyl)phenyl)phthalazin-1 (2H)-one] | 339 |  |
| CC(C)(C(N)=O)c1cccc(-c2nn(C3CCCCC3)c(=O)c3ccccc23)c1 [Example 163, 2-(3-(3-Cyclohexyl-4-oxo-3,4-dihydrophthalazin-1-yl)phenyl)-2-methylpropanamide] | 277 |  |
| Cl.O=c1c2ccccc2c(C2=CCNCC2)nn1-c1ccc(F)cc1F [Example 215, 2-(2,4-Difluorophenyl)-4-(1,2,3,6-tetrahydropyridin-4-yl)phthalazin-1(2H)-one-hydrochloride] | 226.60 |  |
| CC(C)(C(N)=O)c1cccc(-c2nn(-c3ccc(Cl)cc3)c(=O)c3ccccc23)c1 [Example 197, 2-(3-(3-(4-Chlorophenyl)-4-oxo-3,4-dihydrophthalazin-1-yl)phenyl)-2-methylpropanamide] | 153.60 |  |
| CN(C)S(=O)(=O)Nc1cccc(-c2nn(-c3ccccc3)c(=O)c3ccccc23)c1 [Example 9] | 154 |  |
| CCNc1cccc(-c2nn(-c3ccc(C(F)(F)F)cc3)c(=O)c3ccccc23)c1 [Example 4, 4-(3-(Ethylamino)phenyl)-2-(4-(trifluoro-methyl)phenyl)phthalazin-1(2H)-one] | 102 |  |
| O=c1c2ccccc2c(-c2cccc(S(=O)(=O)N3CCCC3)c2)nn1-c1ccc(F)cc1F [Example 214, 2-(2,4-Difluorophenyl)-4-(3-(pyrrolidin-1-ylsulfonyl)phenyl)phthalazin-1(2H)-one] | 233.90 |  |
| CNS(=O)(=O)c1cccc(-c2nn(-c3ccccc3)c(=O)c3cc(F)ccc23)c1 [Example 113, 3-(6-Fluoro-4-oxo-3-phenyl-3,4-dihydrophthalazin-1-yl)-N-methylbenzenesulfonamide] | 116 |  |
| CCS(=O)(=O)Nc1cccc(-c2nn(C3COC3)c(=O)c3ccccc23)c1 [Example 136, N-(3-(3-(Oxetan-3-yl)-4-oxo-3,4-dihydrophthalazin-1-yl)phenyl)ethanesulfonamide] | 101.27 |  |
| CC(C)(C(=O)O)C1CN(c2nn(-c3ccc(F)cc3F)c(=O)c3ccccc23)CCO1 (stereo not shown) [Example 221, 2-(4-(3-(2,4-Difluorophenyl)-4-oxo-3,4-dihydrophthalazin-1-yl)morpholin-2-yl)-2-methylpropanoic Acid] | 125.50 |  |
| CC(C)/[N+]([O-])=C\c1ccc(-c2nn(-c3ccc(F)cc3)c(=O)c3ccccc23)c(F)c1 [Example 39, (E)-1-(3-Fluoro-4-(3-(4-fluorophenyl)-4-oxo-3,4-dihydrophthalazin-1-yl)phenyl)-N-isopropylmethanimine Oxide] | 106 |  |
| CCCS(=O)(=O)Nc1cccc(-c2nn(-c3ccc(F)cc3)c(=O)c3ccccc23)c1 [Example 68, N-(3-(3-(4-Fluorophenyl)-4-oxo-3,4-dihydrophthalazin-1-yl)phenyl)propan-1-sulfonamide] | 160 |  |
| CC(C)/[N+]([O-])=C/c1cccc(-c2nn(-c3ccc(F)cc3)c(=O)c3ccccc23)c1 [Example 37, (Z)-1-(3-(3-(4-Fluorophenyl)-4-oxo-3,4-dihydrophthalazin-1-yl)phenyl)-N-isopropyl methanimine Oxide] |  | 126 |
| CS(=O)(=O)c1cccc(-c2nn(-c3c(F)cccc3F)c(=O)c3ccccc23)c1 [Example 105, 2-(2,6-Difluorophenyl)-4-(3-(methylsulfonyl)phenyl)phthalazin-1 (2H)-one] | 226 |  |
| CCS(=O)(=O)c1cccc(-c2nn(-c3ccc(F)cc3F)c(=O)c3ccccc23)c1 [Example 90, 2-(2,4-Difluorophenyl)-4-(3-(ethylsulfonyl)phenyl)phthalazin-1(2H)-one] | 283 |  |
| Cl.N[C@@H]1CCCCN(c2nn(-c3ccc(F)cc3)c(=O)c3ccccc23)C1 [Example 162, (R)-4-(3-Aminoazepan-1-yl)-2-(4-fluorophenyl)phthalazin-1(2H)-one-hydrochloride] | 205.5 |  |
| O=c1c2ccccc2c(-c2cccc(NS(=O)(=O)C(F)(F)F)c2)nn1-c1ccc(F)cc1 [Example 77, 1,1,1-Trifluoro-N-(3-(3-(4-fluorophenyl)-4-oxo-3,4-dihydrophthalazin-1-yl)phenyl)methanesulfonamide] | 194 |  |
| CC(C)/[N+]([O-])=C/c1cccc(-c2nn(-c3cccc(F)c3)c(=O)c3ccccc23)c1 [Example 28, (Z)-1-(3-(3-(3-Fluorophenyl)-4-oxo-3,4-dihydrophthalazin-1-yl)phenyl)-N-isopropylmethanimine Oxide] | 154 |  |
| COc1ccc(-n2nc(-c3cccc(/C=[N+](\[O-])C(C)C)c3)c3ccccc3c2=O)cc1 [Example 32, (Z)—N-Isopropyl-1-(3-(3-(4-methoxyphenyl)-4-oxo-3,4-dihydrophthalazin-1-yl)phenyl) Methanimine Oxide] | 124 |  |
| CC/[N+]([O-])=C/c1cccc(-c2nn(-c3ccc(F)cc3)c(=O)c3ccccc23)c1 [Example 16, (Z)—N-Ethyl-1-(3-(3-(4-fluorophenyl)-4-oxo-3,4-dihydrophthalazin-1-yl)phenyl)methanimine Oxide] | 221 |  |
| Cl.NC1CCCCN(c2nn(-c3ccc(F)cc3F)c(=O)c3ccccc23)C1 (stereo not shown) [Example 167, 4-(3-Aminoazepan-1-yl)-2-(2,4-difluorophenyl)phthalazin-1(2H)-one-hydrochloride] | 249.4 |  |
| COC(=O)C1(C2CCCN(c3nn(-c4ccc(F)cc4F)c(=O)c4ccccc34)C2)CC1 (stereo not shown) [Example 211, Methyl 1-(1-(3-(2,4-difluorophenyl)-4-oxo-3,4-dihydrophthalazin-1-yl)piperidin-3-yl)cyclopropan-1-carboxylate] | 170.00 |  |

Reference: patent publication US20220235011A1, “PHTHALAZINONE COMPOUNDS AND USE THEREOF” (ST PHARM CO., LTD., priority 2019, published 2022)
